The experiment addresses T1, human A2a receptor (Homo sapiens, UniProt P29274).
T1 construct: purchased Perkin-Elmer RBHA2AM400UA; host or cells: HEK293 cells (membranes)
In words: A2a competition binding assay, Scintillation Proximity technology. The note with it: membranes from HEK293 cells expressing human A2a receptor; Ki by Cheng-Prusoff equation. The procedure, abridged: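 Membranes from HEK293 cells expressing human A2a, adenosine deaminase-treated, incubated 1 h at room temperature with compound (3000 to 0.15 nM) and 0.5 nM tritiated pyrazolotriazolopyrimidine radioligand on WGA SPA beads in Ca/Mg-free PBS + 10 mM MgCl2. Non-specific binding with 1 μM CGS15943; Ki by Cheng-Prusoff.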

T1 sequence (P29274 whole entry): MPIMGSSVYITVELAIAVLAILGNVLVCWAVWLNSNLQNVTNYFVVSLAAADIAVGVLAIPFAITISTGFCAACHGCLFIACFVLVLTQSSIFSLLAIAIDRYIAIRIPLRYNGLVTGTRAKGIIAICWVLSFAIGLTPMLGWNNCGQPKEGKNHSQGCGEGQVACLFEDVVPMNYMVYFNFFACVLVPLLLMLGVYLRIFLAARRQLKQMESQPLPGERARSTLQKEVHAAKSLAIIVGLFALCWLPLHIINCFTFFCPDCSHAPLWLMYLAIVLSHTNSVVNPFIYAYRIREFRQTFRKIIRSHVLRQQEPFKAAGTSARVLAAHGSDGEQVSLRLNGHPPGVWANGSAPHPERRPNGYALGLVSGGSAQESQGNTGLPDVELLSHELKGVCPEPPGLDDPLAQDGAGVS

Regarding `Nc1nc(-n2cncn2)c(Cl)nc1C(=O)NCc1ccc(F)cc1F` [Ex-328, 3-amino-6-chloro-N-(2,4-difluorobenzyl)-5-(1H-1,2,4-triazol-1-yl)pyrazine-2-carboxamide], the Ki (in general, a measure of affinity in units of concentration, obtained from inhibition or displacement) came to 627 nM.

In the case of `Nc1nc(-n2cccn2)c(Cl)nc1C(=O)NCc1ccccc1C(F)(F)F` [Ex-329, 3-amino-6-chloro-5-(1H-pyrazol-1-yl)-N-[2-(trifluoromethyl)benzyl] pyrazine-2-carboxamide], the affinity, expressed as Ki, was 8.6 nM.

For the compound `Nc1nc(-n2cccn2)c(Cl)nc1C(=O)NCc1ccc(F)cc1` [Ex-330, 3-amino-6-chloro-N-(4-fluorobenzyl)-5-(1H-pyrazol-1-yl)pyrazine-2-carboxamide], the affinity corresponds to a Ki of 61.5 nM.

`Nc1nc(-n2cccn2)c(Cl)nc1C(=O)NCc1ccc(F)cc1F` [Ex-331, 3-amino-6-chloro-N-(2,4-difluorobenzyl)-5-(1H-pyrazol-1-yl)pyrazine-2-carboxamide] displayed a Ki of 75.4 nM.

Consider `Nc1nc(-n2cccn2)c(Cl)nc1C(=O)NCc1cccc2cccnc12` [Ex-332, 3-amino-6-chloro-5-(1H-pyrazol-1-yl)-N-(quinolin-8-ylmethyl)pyrazine-2-carboxamide], for which affinity was put at a Ki of 4.1 nM.

In turn, `Nc1nc(-n2cccn2)c(Cl)nc1C(=O)N[C@@H]1CCc2ccccc21` [Ex-333, 3-amino-6-chloro-N-[(1R)-2,3-dihydro-1H-inden-1-yl]-5-(1H-pyrazol-1-yl)pyrazine-2-carboxamide] came in with a Ki of 57.9 nM.

In the case of `Cc1cccnc1CNC(=O)c1nc(Cl)c(-n2cccn2)nc1N` [Ex-334, 3-amino-6-chloro-N-[(3-methylpyridin-2-yl)methyl]-5-(1H-pyrazol-1-yl)pyrazine-2-carboxamide], affinity was put at a Ki of 13.7 nM.

`Cc1cnn(-c2nc(N)c(C(=O)NCc3ccccc3C(F)(F)F)nc2Cl)c1` [Ex-335, 3-amino-6-chloro-5-(4-methyl-1H-pyrazol-1-yl)-N-[2-(trifluoromethyl)benzyl] pyrazine-2-carboxamide] displayed a Ki of 114 nM.

`Cc1cnn(-c2nc(N)c(C(=O)N[C@@H]3CCc4ccccc43)nc2Cl)c1` [Ex-336, 3-amino-6-chloro-N-[(1R)-2,3-dihydro-1H-inden-1-yl]-5-(4-methyl-1H-pyrazol-1-yl)pyrazine-2-carboxamide]: the affinity corresponds to a Ki of 135 nM.

Turning to `Cc1cnn(-c2nc(N)c(C(=O)NCc3ncccc3C)nc2Cl)c1` [Ex-337, 3-amino-6-chloro-5-(4-methyl-1H-pyrazol-1-yl)-N-[(3-methylpyridin-2-yl)methyl]pyrazine-2-carboxamide], the Ki was determined as 11.2 nM.

On to `Cc1ccn(-c2nc(N)c(C(=O)NCc3ccccc3C(F)(F)F)nc2Cl)n1` [Ex-338, 3-amino-6-chloro-5-(3-methyl-1H-pyrazol-1-yl)-N-[2-(trifluoromethyl)benzyl] pyrazine-2-carboxamide], for which the Ki is 133 nM.

Consider `Cc1ccn(-c2nc(N)c(C(=O)N[C@@H]3CCc4ccccc43)nc2Cl)n1` [Ex-339, 3-amino-6-chloro-N-[(1R)-2,3-dihydro-1H-inden-1-yl]-5-(3-methyl-1H-pyrazol-1-yl)pyrazine-2-carboxamide], for which affinity was put at a Ki of 117 nM.

Compound `Cc1cnn(-c2nc(N)c(C(=O)NCc3cccc4cccnc34)nc2Cl)c1` [Ex-340, 3-amino-6-chloro-5-(4-methyl-1H-pyrazol-1-yl)-N-(quinolin-8-ylmethyl)pyrazine-2-carboxamide] gave a Ki of 12.8 nM.

`Cc1cnn(-c2nc(N)c(C(=O)NCc3ncccc3C)nc2C)c1` [Ex-341, 3-amino-6-methyl-5-(4-methyl-1H-pyrazol-1-yl)-N-[(3-methylpyridin-2-yl)methyl]pyrazine-2-carboxamide] had a Ki of 105 nM.

`Cc1cnn(-c2nc(N)c(C(=O)NCc3nccc4ccccc34)nc2C)c1` [Ex-342, 3-amino-N-(isoquinolin-1-ylmethyl)-6-methyl-5-(4-methyl-1H-pyrazol-1-yl)pyrazine-2-carboxamide] showed a Ki of 122 nM.

For the compound `Cc1cnn(-c2nc(N)c(C(=O)NCc3ncccc3C(F)(F)F)nc2Cl)c1` [Ex-343, 3-amino-6-chloro-5-(4-methyl-1H-pyrazol-1-yl)-N-{[3-(trifluoromethyl)pyridin-2-yl]methyl}pyrazine-2-carboxamide], the Ki came out at 35.9 nM.

`Cc1cnn(-c2nc(N)c(C(=O)NCc3ccc(F)cc3F)nc2Cl)n1` [Ex-344, 3-amino-6-chloro-N-(2,4-difluorobenzyl)-5-(4-methyl-2H-1,2,3-triazol-2-yl)pyrazine-2-carboxamide]: affinity was put at a Ki of 31 nM.

Compound `Cc1cnn(-c2nc(N)c(C(=O)NCc3ncccc3C)nc2Cl)n1` [Ex-345, 3-amino-6-chloro-N-[(3-methylpyridin-2-yl)methyl]-5-(4-methyl-2H-1,2,3-triazol-2-yl)pyrazine-2-carboxamide] displayed a Ki of 6 nM.

`Cc1cnn(-c2nc(N)c(C(=O)NC3CCNc4ccccc43)nc2Cl)n1` (stereo not shown) [Ex-346, 3-amino-6-chloro-5-(4-methyl-2H-1,2,3-triazol-2-yl)-N-(1,2,3,4-tetrahydroquinolin-4-yl)pyrazine-2-carboxamide] registered a Ki of 397 nM.

`Cc1nc(C(=O)NCc2cccc3cccnc23)c(N)nc1-n1cccn1` [Ex-347, 3-amino-6-methyl-5-(1H-pyrazol-1-yl)-N-(quinolin-8-ylmethyl)pyrazine-2-carboxamide]: the Ki came to 46.4 nM.

Regarding `Cc1cnn(-c2nc(N)c(C(=O)NCc3cccc4cccnc34)nc2Cl)n1` [Ex-348, 3-amino-6-chloro-5-(4-methyl-2H-1,2,3-triazol-2-yl)-N-(quinolin-8-ylmethyl)pyrazine-2-carboxamide], affinity was put at a Ki of 10.1 nM.

Take `Cc1cnn(-c2nc(N)c(C(=O)N[C@H](CO)c3ccccc3)nc2Cl)c1` [Ex-349, 3-amino-6-chloro-N-[(1S)-2-hydroxy-1-phenylethyl]-5-(4-methyl-1H-pyrazol-1-yl)pyrazine-2-carboxamide]: the Ki was determined as 180 nM.

In the case of `Cc1cnn(-c2nc(N)c(C(=O)NCc3ccc4[nH]ccc4c3)nc2Cl)c1` [Ex-350, 3-amino-6-chloro-N-(1H-indol-5-ylmethyl)-5-(4-methyl-1H-pyrazol-1-yl)pyrazine-2-carboxamide], the Ki came out at 630 nM.

On to `Cc1cnn(-c2nc(N)c(C(=O)NCc3nc4ccccc4n3C)nc2Cl)c1` [Ex-351, 3-amino-6-chloro-N-[(1-methyl-1H-benzimidazol-2-yl)methyl]-5-(4-methyl-1H-pyrazol-1-yl)pyrazine-2-carboxamide], for which the Ki is 315 nM.

The compound `Cc1cnn(-c2nc(N)c(C(=O)NCc3cccc4cc[nH]c34)nc2Cl)c1` [Ex-352, 3-amino-6-chloro-N-(1H-indol-7-ylmethyl)-5-(4-methyl-1H-pyrazol-1-yl)pyrazine-2-carboxamide] gave a Ki of 51.1 nM.

As for `Cc1cnn(-c2nc(N)c(C(=O)NCc3cccc4[nH]ccc34)nc2Cl)c1` [Ex-353, 3-amino-6-chloro-N-(1H-indol-4-ylmethyl)-5-(4-methyl-1H-pyrazol-1-yl)pyrazine-2-carboxamide], the Ki was 49 nM.

The compound `Cc1cnn(-c2nc(N)c(C(=O)NCc3ccc4cc[nH]c4c3)nc2Cl)c1` [Ex-354, 3-amino-6-chloro-N-(1H-indol-6-ylmethyl)-5-(4-methyl-1H-pyrazol-1-yl)pyrazine-2-carboxamide] came in with a Ki of 390 nM.

`Cc1cnn(-c2nc(N)c(C(=O)NCc3nc4ccccc4s3)nc2Cl)c1` [Ex-355, 3-amino-N-(1,3-benzothiazol-2-ylmethyl)-6-chloro-5-(4-methyl-1H-pyrazol-1-yl)pyrazine-2-carboxamide] showed a Ki of 543 nM.

`Cc1cnn(-c2nc(N)c(C(=O)NCc3nc4ccccc4o3)nc2Cl)c1` [Ex-356, 3-amino-N-(1,3-benzoxazol-2-ylmethyl)-6-chloro-5-(4-methyl-1H-pyrazol-1-yl)pyrazine-2-carboxamide] had a Ki of 4.3 nM.

As to `Cc1cnn(-c2nc(N)c(C(=O)NCc3cccc4nccnc34)nc2Cl)c1` [Ex-357, 3-amino-6-chloro-5-(4-methyl-1H-pyrazol-1-yl)-N-(quinoxalin-5-ylmethyl)pyrazine-2-carboxamide], the Ki came to 69.4 nM.

Compound `Cc1cnn(-c2nc(N)c(C(=O)NCc3ccccc3)nc2Cl)c1` [Ex-358, 3-amino-N-benzyl-6-chloro-5-(4-methyl-1H-pyrazol-1-yl)pyrazine-2-carboxamide] returned a Ki of 73.3 nM.

In turn, `Cc1cnn(-c2nc(N)c(C(=O)NCc3cn4ccsc4n3)nc2Cl)c1` [Ex-359, 3-amino-6-chloro-N-(imidazo[2,1-b][1,3]thiazol-6-ylmethyl)-5-(4-methyl-1H-pyrazol-1-yl)pyrazine-2-carboxamide] gave a Ki of 90 nM.

`Cc1cnn(-c2nc(N)c(C(=O)NCc3cnc4ccccn34)nc2Cl)c1` [Ex-360, 3-amino-6-chloro-N-(imidazo[1,2-a]pyridin-3-ylmethyl)-5-(4-methyl-1H-pyrazol-1-yl)pyrazine-2-carboxamide]: the Ki turned out to be 615 nM.

Compound `Cc1cnn(-c2nc(N)c(C(=O)NCc3cncc4ccccc34)nc2Cl)c1` [Ex-361, 3-amino-6-chloro-N-(isoquinolin-4-ylmethyl)-5-(4-methyl-1H-pyrazol-1-yl)pyrazine-2-carboxamide] registered a Ki of 63.2 nM.

The compound `Cc1cnn(-c2nc(N)c(C(=O)NCc3cnn4ccccc34)nc2Cl)c1` [Ex-362, 3-amino-6-chloro-5-(4-methyl-1H-pyrazol-1-yl)-N-(pyrazolo[1,5-a]pyridin-3-ylmethyl)pyrazine-2-carboxamide] came in with a Ki of 143 nM.

`Cc1cnn(-c2nc(N)c(C(=O)NCc3cccc4c3C(=O)NC4)nc2Cl)c1` [Ex-363, 3-amino-6-chloro-5-(4-methyl-1H-pyrazol-1-yl)-N-[(3-oxo-2,3-dihydro-1H-isoindol-4-yl)methyl]pyrazine-2-carboxamide] came in with a Ki of 0.5 nM.

For the compound `Cc1cccnc1CNC(=O)c1nc(C)c(-c2nc(C(F)(F)F)co2)nc1N` [Ex-379, 3-amino-6-methyl-N-[(3-methylpyridin-2-yl)methyl]-5-[4-(trifluoromethyl)-1,3-oxazol-2-yl]pyrazine-2-carboxamide], the Ki came to 1490 nM.

The values are drawn from US10472347B2, “Aminopyrazine compounds with A2A antagonist properties” (Merck Sharp & Dohme Corp., priority 2014, dated 2019).
